# Patent US10947252B2, “Inhibitors of KEAP1-Nrf2 protein-protein interaction” (Janssen Pharmaceutica NV, priority 2018, dated 2021)
# Key:
# [1] = target: Kelch domain of human KEAP1 (321-624 aa) (Homo sapiens (Human), UniProt Q14145); experiment: KEAP1 KELCH ThermoFluor binding assay; conditions: KEAP Kelch […], 1,8-ANS, pH 7.0, average of results obtained, read-out: Tf Kd;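 note: Ligand-induced melting temperature shift of E. coli-expressed KEAP1 Kelch protein, Kd estimated from concentration-response curves of ΔTm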
# [2] = test system: Glo-Response ARE-luc2P HEK293 cell line; experiment: ARE luciferase reporter cell-based assay; conditions: Homo sapiens, HEK293, 24 h, average of results obtained;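 note: luciferase signal tracks Nrf2 activation of the ARE once compounds disrupt KEAP1-Nrf2 binding, read with One-Glo reagent, DMSO serving as low control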
# Sequence of Kelch domain of human KEAP1 (321-624 aa) (Q14145 321-624): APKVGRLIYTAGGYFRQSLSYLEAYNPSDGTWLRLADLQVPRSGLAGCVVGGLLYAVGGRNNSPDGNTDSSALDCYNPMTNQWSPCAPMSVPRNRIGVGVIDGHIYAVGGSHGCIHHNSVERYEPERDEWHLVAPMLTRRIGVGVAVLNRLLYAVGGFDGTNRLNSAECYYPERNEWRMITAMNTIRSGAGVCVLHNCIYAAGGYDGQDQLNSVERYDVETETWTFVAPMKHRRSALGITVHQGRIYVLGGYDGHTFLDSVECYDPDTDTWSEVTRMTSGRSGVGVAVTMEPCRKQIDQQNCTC
Kd [1],Compound,EC50 [2]
< 1 nM,"Cc1ccc(C(CC(=O)O)c2ccn3c(C(F)F)nnc3c2C)cc1CN1CC2(CC2)Oc2ncccc2S1(=O)=O (centres unmarked) [Example 472, 3-(3-(Difluoromethyl)-8-methyl-[1,2,4]triazolo[4,3-a]pyridin-7-yl)-3-(3-((1′,1′-dioxidospiro[cyclopropane-1,4′-pyrido[2,3-b][1,4,5]oxathiazepin]-2′(3′H)-yl)methyl)-4-methylphenyl)propanoic Acid]",245 nM
< 1 nM,"CCn1nnc2c(C)c(C(CC(=O)O)c3ccc(C)c(CN4CC5(COC5)Oc5ncccc5S4(=O)=O)c3)ccc21 (centres unmarked) [Example 252, 3-(3-((1′,1′-Dioxidospiro[oxetane-3,4′-pyrido[2,3-b][1,4,5]oxathiazepin]-2′(3′H)-yl)methyl)-4-methylphenyl)-3-(1-ethyl-4-methyl-1H-benzo[d][1,2,3]triazol-5-yl)propanoic Acid]",21 nM
< 1 nM,"Cc1ccc(C(CC(=O)O)c2ccc3c(nnn3C3CC3)c2C)cc1CN1CC2(COC2)Oc2ccccc2S1(=O)=O (racemic) [Example 214, (R/S)-3-(1-Cyclopropyl-4-methyl-1H-benzo[d][1,2,3]triazol-5-yl)-3-(3-((1,1-dioxidospiro[benzo[b][1,4,5]oxathiazepine-4,3′-oxetan]-2(3H)-yl)methyl)-4-methylphenyl)propanoic Acid]",5.1 nM
8 nM,"Cc1ccc(C(CC(=O)O)c2ccc3c(nnn3CC3CC3)c2C)cc1CN1C[C@@]2(C)CCCN2c2ncccc2S1(=O)=O (stereo in doubt) [Example 80, 3-(1-(Cyclopropylmethyl)-4-methyl-1H-benzo[d][1,2,3]triazol-5-yl)-3-(4-methyl-3-(((*R)-7a-methyl-5,5-dioxido-7a,8,9,10-tetrahydropyrido[2,3-f]pyrrolo[2,1-d][1,2,5]thiadiazepin-6(7H)-yl)methyl)phenyl)propanoic Acid]",306 nM
1.6 nM,"Cc1ccc([C@H](CC(=O)O)c2ccn3c(C(F)(F)F)nnc3c2C)cc1CN1CC2(CC2)Oc2nc(O)ccc2S1(=O)=O (single isomer, unassigned) [Example 103, (*S)-3-(3-((7′-Hydroxy-1′,1′-dioxidospiro[cyclopropane-1,4′-pyrido[2,3,-b][1,4,5]oxathiazepin]-2′(3′H)-yl)methyl)-4-methylphenyl)-3-(8-methyl-3-(trifluoromethyl)-[1,2,4]triazolo[4,3-a]pyridine-7-yl)propanoic Acid]",9130 nM

# Further lines, the molecule ahead of its results:
Compound,Kd [1],EC50 [2]
"COCCCNc1ccc2c(n1)OC1(CC1)CN(Cc1cc([C@H](CC(=O)O)c3ccn4c(C(F)(F)F)nnc4c3C)ccc1C)S2(=O)=O (single isomer, unassigned) [Example 107, (*S)-3-(3-((7′-((3-Methoxypropyl)amino)-1′,1′-dioxidospiro[cyclopropane-1,4′-pyrido[2,3-b][1,4,5]oxathiazepin]-2′(3′H)-yl)methyl)-4-methylphenyl)-3-(8-methyl-3-(trifluoromethyl)-[1,2,4]triazolo[4,3-a]pyridine-7-yl)propanoic Acid]",< 1 nM,259 nM
"Cc1ccc([C@@H](CC(=O)O)c2ccn3c(C(F)(F)F)nnc3c2C)nc1CN1C[C@@H]2CCCCN2c2ncc(Cl)cc2S1(=O)=O (single isomer, unassigned) [Example 519, (*S)-3-(6-(((*S)-3-Chloro-5,5-dioxido-7,7a,8,9,10,11-hexahydro-6H-dipyrido[2,1-d:2′,3′-f][1,2,5]thiadiazepin-6-yl)methyl)-5-methylpyridin-2-yl)-3-(8-methyl-3-(trifluoromethyl)-[1,2,4]triazolo[4,3-a]pyridin-7-yl)propanoic Acid]",< 1 nM,16 nM
"Cc1ccc([C@@H](c2ccn3c(C(F)F)nnc3c2C)C(C)(C)C(=O)O)cc1CN1CC2(CC2)Oc2nc(OCCN3CCCC3)c(C)cc2S1(=O)=O (single isomer, unassigned) [Example 375, (*S)-3-(3-(Difluoromethyl)-8-methyl-[1,2,4]triazolo[4,3-a]pyridine-7-yl)-2,2-dimethyl-3-(4-methyl-3-((8′-methyl-1′,1′-dioxido-7′-(2-(pyrrolidin-1-yl)ethoxy)spiro[cyclopropane-1,4′-pyrido[2,3-b][1,4,5]oxathiazepin]-2′(3′H)-yl)methyl)phenyl)propanoic Acid]",< 1 nM,11.5 nM
"Cc1cnc2c(c1)S(=O)(=O)N(Cc1cc([C@H](c3ccn4c(C(F)(F)F)nnc4c3C)C(C)(C)C(=O)O)ccc1C)C[C@@]1(CCOC1)O2 (single isomer, unassigned) [Example 388, (*R)-2,2-Dimethyl-3-(4-methyl-3-(((*R)-8′-methyl-1′,1′-dioxido-4,5-dihydro-2H-spiro[furan-3,4′-pyrido[2,3-b][1,4,5]oxathiazepin]-2′(3′H)-yl)methyl)phenyl)-3-(8-methyl-3-(trifluoromethyl)-[1,2,4]triazolo[4,3-a]pyridin-7-yl)propanoic Acid]",< 1 nM,1 nM
"Cc1ccc([C@H](c2ccn3c(C(F)F)nnc3c2C)C(C)(C)C(=O)O)nc1CN1CC2(CC2)Oc2nc(OCCN3CCCC3)c(C)cc2S1(=O)=O (single isomer, unassigned) [Example 359, (*R)-3-(3-(Difluoromethyl)-8-methyl-[1,2,4]triazolo[4,3-a]pyridin-7-yl)-2,2-dimethyl-3-(5-methyl-6-((8′-methyl-1′,1′-dioxido-7′-(2-(pyrrolidin-1-yl)ethoxy)spiro[cyclopropane-1,4′-pyrido[2,3-b][[,4,5]oxathiazepin]-2′(3′H)-yl)methyl)pyridin-2-yl)propanoic Acid]",< 1 nM,1230 nM
"Cc1ccc(C(CC(=O)O)c2ccn3c(C(F)(F)F)nnc3c2C)nc1CN1C[C@@H]2CCCCN2c2ncccc2S1(=O)=O (stereo in doubt) [Example 478, 3-(6-(((*S)-5,5-Dioxido-7,7a,8,9,10,11-hexahydro-6H-dipyrido[2,1-d:2′,3′-f][1,2,5]thiadiazepin-6-yl)methyl)-5-methylpyridin-2-yl)-3-(8-methyl-3-(trifluoromethyl)-[1,2,4]triazolo[4,3-a]pyridin-7-yl)propanoic Acid]",< 1 nM,57.6 nM
"Cc1ccc([C@@H](c2ccn3c(C(F)F)nnc3c2C)C(C)(C)C(=O)O)nc1CN1CC2(CC2)Oc2nc(OCCN3CCCCC3)c(C)cc2S1(=O)=O (single isomer, unassigned) [Example 356, (*S)-3-(3-(Difluoromethyl)-8-methyl-[1,2,4]triazolo[4,3-a]pyridin-7-yl)-2,2-dimethyl-3-(5-methyl-6-((8′-methyl-1′,1′-dioxido-7′-(2-(piperidin-1-yl)ethoxy)spiro[cyclopropane-1,4′-pyrido[2,3-b][1,4,5]oxathiazepin]-2′(3′H)-yl)methyl)pyridin-2-yl)propanoic Acid]",3550 nM,11.8 nM
"Cc1ccc([C@@H](CC(=O)O)c2ccn3c(C)nnc3c2)cc1CN1C[C@H]2CCCN2c2ccccc2S1(=O)=O (single isomer, unassigned) [Example 166, (*R)-3-(3-(((R)-5,5-Dioxido-7a,8,9,10-tetrahydrobenzo[f]pyrrolo[2,1-d][1,2,5]thiadiazepin-6(7H)-yl)methyl)-4-methylphenyl)-3-(3-methyl-[1,2,4]triazolo[4,3-a]pyridin-7-yl)propanoic Acid]",< 1 nM,7020 nM
